A value given as a limit tells only on which side of the number the result lay.

In data set [1] the test system is MCF7. Nature of the data set: Antiproliferative activity against human MCF7 cells incubated for 72 hrs by MTT assay. Particulars: MCF7, 72 h.
The test system of data set [2] is MDA-MB-231. Nature of the data set: Antiproliferative activity against human MDA-MB-231 cells incubated for 72 hrs by MTT assay. Particulars: MDA-MB-231, 72 h.
Data set [3] concerns HCT-116. Nature of the data set: Antiproliferative activity against human HCT-116 cells incubated for 72 hrs by MTT assay. As to conditions: HCT-116, 72 h. In general terms: Formazan colour is commonly taken as a measure of viable cells.
Data set [4] deals with SCC-9. Nature of the data set: Antiproliferative activity against human SCC-9 cells incubated for 72 hrs by MTT assay. As to conditions: SCC-9, 72 h.
Data set [5] is described as follows: Cytotoxicity against HEK293 cells incubated for 72 hrs by MTT assay. Particulars: human.
The nature of data set [6]: Selectivity index, ratio of IC50 for HEK293 cells to IC50 for human MCF7 cells. As to conditions: HEK293 cells versus MCF7 cells.
A short description of data set [7]: Selectivity index, ratio of IC50 for HEK293 cells to IC50 for human MDA-MB-231 cells. As to conditions: HEK293 cells versus MDA-MB-231 cells.
A short description of data set [8]: Selectivity index, ratio of IC50 for HEK293 cells to IC50 for human HCT-116 cells. As to conditions: HEK293 cells versus HCT-116 cells.
Data set [9] relates to MCF7. Nature of the data set: cells. Particulars: Homo sapiens, MCF7, 48 h, read-out: Activity.
Description: Induction of apoptosis in human MCF7 cells assessed as viable cells at 0.5 uM incubated for 48 hrs by Annexin-V/FITC staining based flow cytometry analysis (Rvb = 99.3 +/- 0.12 %)
Data set [10] has as its system MCF7. Nature of the data set: cells. As to conditions: Homo sapiens, MCF7, 48 h, read-out: Activity. The source holds these as a separate data set.
Description: Induction of apoptosis in human MCF7 cells assessed as viable cells at 2 uM incubated for 48 hrs by Annexin-V/FITC staining based flow cytometry analysis (Rvb = 99.3 +/- 0.12 %)
In data set [11] the test system is MCF7. Nature of the data set: cells. Particulars: Homo sapiens, MCF7, 48 h, read-out: Activity. This is another data set of the same source.
Description: Induction of apoptosis in human MCF7 cells assessed as viable cells at 0.8 uM incubated for 48 hrs by Annexin-V/FITC staining based flow cytometry analysis (Rvb = 99.3 +/- 0.12 %)

As a reminder, the IC50 is the concentration at which inhibition is half-maximal. For the molecule `Cc1cc(S(=O)(=O)Nc2nc(Nc3ccc4ccccc4c3)n[nH]2)c(S)cc1Cl`, the IC50 was determined as 4400 nM in data set [1], 5500 nM in data set [2], 4900 nM in data set [3] and 4000 nM in data set [4].

Turning to `Cc1cc2c(cc1Cl)SC(/N=C(/N)Nc1cnc3ccccn3c1=O)=NS2(=O)=O`, the IC50 in [1] was found to be 1000 nM; in [2], 2500 nM; in [3], 4000 nM; in data set [4], 900 nM. In data set [5], this molecule yielded a 50% inhibitory concentration (IC50) at 72 h of 66500 nM. For the same molecule, the selectivity ratio in data set [6], in data set [7] and in [8] was above 65 in each case.

For `Cc1cc2c(cc1Cl)SC(/N=C(/N)Nc1ccc(N3CCOCC3)cc1)=NS2(=O)=O`, the IC50 in [1] came out at 1100 nM; in data set [2] it was 2400 nM; in [3], 4400 nM; in data set [4], 1200 nM. In data set [5], this molecule displayed an IC50 at 72 h of 70100 nM. For the same molecule, the selectivity ratio in data set [6], in data set [7] and in [8] was above 65 each time.

`Cc1cc(S(=O)(=O)Nc2nc(Nc3cncc4ccccc34)n[nH]2)c(S)cc1Cl`: the IC50 is 1800 nM in data set [1], 2600 nM in data set [2], 3800 nM in [3] and 2100 nM in data set [4]. Further, the selectivity ratio in data set [6], in [7] and in data set [8] was above 65 throughout.

With `Cc1cc(S(=O)(=O)Nc2nc(NC(=O)c3ccc4ccccc4c3)n[nH]2)c(S)cc1Cl`, the IC50 in data set [1] turned out to be 2800 nM; in data set [2] it was 3200 nM; in data set [3], 4100 nM; in [4], 2600 nM. In addition, the selectivity ratio in data set [6], in data set [7] and in data set [8] was above 65 in each case.

For `Cc1cc2c(cc1Cl)SC(/N=C(/N)Nc1cccc3cnccc13)=NS2(=O)=O`, the IC50 was found to be 1300 nM in data set [1], 2600 nM in [2], 3200 nM in [3] and 1200 nM in data set [4]. This molecule came in with an IC50 at 72 h in [5] of 72200 nM. For the same molecule, the selectivity ratio in data set [6], in data set [7] and in data set [8] was above 65 in each case.

`Cc1cc2c(cc1Cl)SC(/N=C(/N)Nc1ccnc3cc(Cl)ccc13)=NS2(=O)=O`: the IC50 in data set [1] is 800 nM; in data set [2] it was 2100 nM; in data set [3], 2800 nM; in [4] it was 1000 nM. The molecule also gave an IC50 at 72 h in data set [5] of 65000 nM. For the same molecule, the selectivity ratio in data set [6], in [7] and in data set [8] was above 65 each time. The viability at 0.5 µM in data set [9] is 64.9%. Further, the viability at 2 µM in [10] turned out to be 14.8%. For the same molecule, the viability at 0.8 µM in data set [11] was determined as 27.4%.

With `COc1ccc(Nc2n[nH]c(NS(=O)(=O)c3cc(C)c(Cl)cc3S)n2)cc1`, the IC50 worked out at 7800 nM in data set [1] and 8500 nM in data set [2]. Besides, the selectivity ratio in data set [6], in data set [7] and in data set [8] was above 65 each time.

For the molecule `Cc1cc2c(cc1Cl)SC(/N=C(/N)Nc1ccc3cc(O)ccc3c1)=NS2(=O)=O`, the IC50 in data set [1] came to 3200 nM; in [2] it was 4400 nM. The selectivity ratio in [6], in data set [7] and in data set [8] was above 65 in each case.

Source of the values: ChEMBL document CHEMBL5344474, “Molecular editing of NSC-666719 enabling discovery of benzodithiazinedioxide-guanidines as anticancer agents” (RSC Med Chem, 2024).
